In ChEMBL document CHEMBL6134923, “Novel Tricyclic Compounds as GSK3 Inhibitors” (ACS Med Chem Lett, 2025):

Columns and labels:
[1] = molecular target: Glycogen synthase kinase-3 alpha (Homo sapiens, UniProt P49840); assay: Inhibition of N-terminal GST-tagged full-length recombinant human GSK-3alpha extracted from baculovirus infected Sf9 cells using biotinylated-phosphorylated glycogen synthase incubated for 100 mins in presence of ATP by TR-FRET assay
[2] = molecular target: Glycogen synthase kinase-3 beta (Homo sapiens, UniProt P49841); assay: Inhibition of N-terminal GST-tagged full-length recombinant human GSK-3beta extracted from baculovirus infected Sf9 cells using biotinylated-phosphorylated glycogen synthase incubated for 100 mins in presence of ATP by TR-FRET assay
Chain of Glycogen synthase kinase-3 beta (P49841 whole entry): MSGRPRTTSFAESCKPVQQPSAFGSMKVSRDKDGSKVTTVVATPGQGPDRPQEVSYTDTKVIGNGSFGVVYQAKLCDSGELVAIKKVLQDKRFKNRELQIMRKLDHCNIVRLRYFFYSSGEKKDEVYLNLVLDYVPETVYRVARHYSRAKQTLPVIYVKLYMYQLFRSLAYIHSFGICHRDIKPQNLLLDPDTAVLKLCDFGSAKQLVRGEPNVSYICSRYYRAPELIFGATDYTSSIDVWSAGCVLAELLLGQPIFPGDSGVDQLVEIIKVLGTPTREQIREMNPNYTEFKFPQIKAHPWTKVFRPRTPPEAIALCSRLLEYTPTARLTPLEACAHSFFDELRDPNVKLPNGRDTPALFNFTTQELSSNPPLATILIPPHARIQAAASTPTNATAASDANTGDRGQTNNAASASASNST

Chain of Glycogen synthase kinase-3 alpha (P49840 whole entry): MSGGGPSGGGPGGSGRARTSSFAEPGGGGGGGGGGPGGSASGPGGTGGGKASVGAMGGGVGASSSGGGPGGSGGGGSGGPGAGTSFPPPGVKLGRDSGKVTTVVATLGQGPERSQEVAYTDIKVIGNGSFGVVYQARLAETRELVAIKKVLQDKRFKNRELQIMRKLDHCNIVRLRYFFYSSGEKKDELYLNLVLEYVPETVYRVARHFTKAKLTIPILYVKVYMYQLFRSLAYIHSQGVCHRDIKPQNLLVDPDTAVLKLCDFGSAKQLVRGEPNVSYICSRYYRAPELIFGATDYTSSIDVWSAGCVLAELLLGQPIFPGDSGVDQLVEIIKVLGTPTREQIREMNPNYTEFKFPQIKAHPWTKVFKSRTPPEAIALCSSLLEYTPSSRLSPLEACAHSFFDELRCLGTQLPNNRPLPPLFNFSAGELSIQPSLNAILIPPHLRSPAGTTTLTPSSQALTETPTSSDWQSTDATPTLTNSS

SMILES | IC50 [1] | IC50 [2]
CC[C@]1(c2cccc(OC(C)C)c2)C2=C(CC(C)(C)CC2=O)Nc2n[nH]c(C(F)(F)F)c21 | ≤ 100 nM | ≤ 100 nM
CCC1(c2cccc(N3CC4CCC(C4)C3)c2)C2=C(CC(C)(C)CC2=O)Nc2n[nH]cc21 (configuration not stated) | > 100 nM | > 1000 nM
CC[C@@]1(c2cccc(S(=O)(=O)C3CC3)c2)C2=C(CC(C)(C)CC2=O)Nc2n[nH]c(C(F)(F)F)c21 | ≤ 100 nM | ≤ 100 nM
CC[C@@]1(c2cccc(-c3cc(C)ncc3C)c2)C2=C(CC(C)(C)CC2=O)Nc2n[nH]c(C(F)(F)F)c21 | > 100 nM | > 100 nM
CC[C@@]1(c2cccc(-c3cncn3C)c2)C2=C(CC(C)(C)NC2=O)Nc2n[nH]c(C(F)(F)F)c21 | ≤ 100 nM | ≤ 100 nM
CC[C@@]1(c2cccc(C(F)(F)F)c2)C2=C(Nc3n[nH]cc31)[C@H](F)C(C)(C)CC2=O | ≤ 100 nM | ≤ 100 nM
